# Tested on: soybean plants containing event EE-GM5
# Assay: HPPD inhibitor herbicide tolerance field trials on plants with EE-GM5 (maximum phytotoxicity)
# Type: in vivo, soybean (Glycine max)
# Conditions: for tolerance of plants with EE-GM5 to the herbicide: field, different locations over 2 years, applied pre-emergence or post-emergence
# Method: Tolerance of plants comprising EE-GM5 to HPPD inhibitor herbicides was tested at different locations in the field over 2 years. […] All post-emergence treatments were at the V2-V3 stage, with adjuvants crop oil concentrate and ammonium sulfate added to increase herbicide activity.
# The “maximum phytotoxicity” as used herein is the highest phytotoxicity rating recorded at any observation during the duration of a trial (with 3 to 4 observations per trial). In existing weed control applications, a normal (1×) dose for isoxaflutole (IFT) in pre- or post-emergence application and for MST in post-emergence application is 105 gr/ha, and a normal (1×) dose for mesotrione in pre-emergence application is 210 gr/ha.
# Also, in several field trials across 2 years, soybean plants with event EE-GM5 had good tolerance towards experimental HPPD inhibitor compound 2-methyl-N-(5-methyl-1,3,4-oxadiazol-2-yl)-3-(methylsulfonyl)-4-(trifluoromethyl)benzamide (U.S. Pat. No. 9,101,141) when applied pre-emergence at 400 gr ai/ha or post-emergence at 200 gr ai/ha, respectively (the average maximum phytotoxicity value for each treatment was below 20%). […] All post-emergence treatments were at the V2-V3 stage, with adjuvants crop oil concentrate and ammonium sulfate added to increase herbicide activity.
# Also, plants with EE-GM5 when treated post-emergent (V2-V3) with topramezone at 36 g ai/ha (+COC and AMS) in 2 field trials in the US gave an average maximum phytotoxicity of 11%, showing EE-GM5 also confers good tolerance to this HPPD inhibitor.
smiles,measurement,setting,value
CSc1c(C(F)(F)F)ccc(C(=O)Nc2nnnn2C)c1Cl [2-chloro-3-(methylsulfanyl)-N-(1-methyl-1H-tetrazol-5-yl)-4-(trifluoromethyl)benzamide],average maximum phytotoxicity,"3rd year, EE-GM5 in Thorne background, 150 g/ha post-emergence, 3 field trial locations",13.3%
same,average maximum phytotoxicity,"several field trials across 2 years, post-emergence (V2-V3) at 100-150 gr ai/ha",20%
"Cc1nnc(NC(=O)c2ccc(C(F)(F)F)c(S(C)(=O)=O)c2C)o1 [2-methyl-N-(5-methyl-1,3,4-oxadiazol-2-yl)-3-(methylsulfonyl)-4-(trifluoromethyl)benzamide]",average maximum phytotoxicity value,"several field trials across 2 years, post-emergence (V2-V3) at 200 gr ai/ha",below 20%
same,average maximum phytotoxicity value,"several field trials across 2 years, pre-emergence at 400 gr ai/ha",below 20%
"CS(=O)(=O)c1cc(C(F)(F)F)ccc1C(=O)c1cnoc1C1CC1 [isoxaflutole, (5-cyclopropyl-4-isoxazolyl)[2-(methylsulfonyl)-4-(trifluoromethyl)phenyl]methanone]",average maximum phytotoxicity,"3rd year, EE-GM5 in Thorne background, post-emergence V2-V3 stage at 210 g/ha, 4 locations",10.9%
same,maximum phytotoxicity,"3rd year, EE-GM5 in Thorne background, pre-emergence at 410 g/ha, one field trial location",9%
same,tolerance of plants with EE-GM5 to the herbicide,,commercially relevant tolerance
"CS(=O)(=O)c1ccc(C(=O)C2C(=O)CCCC2=O)c([N+](=O)[O-])c1 [mesotrione, 2-[4-(Methylsulfonyl)-2-nitrobenzoyl]cyclohexane-1,3-dione]",tolerance of plants with EE-GM5 to the herbicide,,commercially relevant tolerance
"Cc1c(C(=O)c2cnn(C)c2O)ccc(S(C)(=O)=O)c1C1=NOCC1 [topramezone, [3-(4,5-dihydro-3-isoxazolyl)-2-methyl-4-(methylsulfonyl)phenyl](5-hydroxy-1-methyl-1H-pyrazol-4-yl)methanone]",average maximum phytotoxicity,"post-emergent (V2-V3) at 36 g ai/ha (+COC and AMS), 2 field trials in the US",11%
